Tests used:
[1] = test system: oxazolone induced atopic dermatitis in mice; assay: Ear thickness in oxazolone induced atopic dermatitis in mice; assay type: in vivo, female balb/c mice; parameters: Change in ear thickness: unit not given beside the values; details: for percentage inhibition in ear thickness (atopic dermatitis): topical; for % change: topical day 5 and day 6, ear thickness vs vehicle control; for Change in ear thickness: topical on left ear day 5 and day 6
Method: (§1) The 7-8 week old female balb/c mice used for the study were divided into four groups of six mice each. Animal shaved on their abdomen region. On day-1, Oxazolone (Sigma chemical Co. USA) was dissolved in ethanol and applied at a dose volume is 500 ug/100 μl/mouse on shaved abdomen side as sensitized dose. On day 5, basal ear thickness was measured and oxazolone (dissolved in acetone, (100 μg/20 μl)) applied on left side ear at a dose volume of 20 μl/mouse on day 5 and day 6. Post Two hours of oxazolone application, treatment drugs applied on left ear respectively. Treatment was applied on day 5 and day 6 and ear thickness was measured on day 5 (basal), day 6 and day 7.
All animals were assessed for the ear thickness measurement. Animals were sacrificed on day 7, Ear weight were taken and ear were collected for histology and gene expression.
as §1, with “into five” for “into four”, “20 μ/mouse” for “20 μl/mouse”
All animals were assessed for the ear thickness measurement. Animals were sacrificed on day 7, Ear weight were taken.

[2] = test system: cyclo-oxygenase enzymes (COX); details: background statement; cited from earlier work
[3] = Study-1, text, Apremilast 3%, Diclofenac 1.5%
[4] = Study-1, Apremilast 3%, Diclofenac 1.5%
[5] = Study-1, Apremilast 3%, Diclofenac 1.5%, vehicle control 0.3
[6] = Study-2, text, Apremilast 1%, Diclofenac 1%
[7] = Study-2, Apremilast 1%, Diclofenac 1%
[8] = Study-2, Apremilast 1%, Diclofenac 1%, vehicle control 0.44

Compound | percentage inhibition in ear thickness (atopic dermatitis) [1, 3] [%] | % change [1, 4] [%] | Change in ear thickness [1, 5] | percentage inhibition in ear thickness (atopic dermatitis) [1, 6] [%] | % change [1, 7] [%] | Change in ear thickness [1, 8] | approximate relative COX-1/COX-2 specificity ratio [2]
CCOc1cc([C@@H](CS(C)(=O)=O)N2C(=O)c3cccc(NC(C)=O)c3C2=O)ccc1OC [Apremilast, (+)-2-[1-(3-ethoxy-4-methoxyphenyl)-2-methanesulfonylethyl]-4-acetylaminoisoindolin-1,3-dione] | 38 | 38.6 | 0.18 | 45 | 45.1 | 0.24 | 
O=C([O-])Cc1ccccc1Nc1c(Cl)cccc1Cl.[Na+] [Diclofenac, sodium salt of [2-(2,6-Dichloroanilino)phenyl]acetic acid] | 64 | 63.8 | 0.11 | 37 | 36.8 | 0.28 | one

Source: US20200179339A1, “PHARMACEUTICALS COMPOSITIONS FOR TREATMENT OF ATOPIC DERMATITIS” (CADILA HEALTHCARE LIMITED, priority 2018, published 2020)
